What all share (assay): DSF thermal shift, kinase panel
Common to all, as to assay type: binding
Details in all cases: 10 μM compound

In test [1] the target is T1, STK17AA (Homo sapiens, UniProt Q9UEE5).
T1 construct: TEV-cleavable (cleaved yes); made in house; host or cells: E. coli
T1 sequence (Q9UEE5 1-414): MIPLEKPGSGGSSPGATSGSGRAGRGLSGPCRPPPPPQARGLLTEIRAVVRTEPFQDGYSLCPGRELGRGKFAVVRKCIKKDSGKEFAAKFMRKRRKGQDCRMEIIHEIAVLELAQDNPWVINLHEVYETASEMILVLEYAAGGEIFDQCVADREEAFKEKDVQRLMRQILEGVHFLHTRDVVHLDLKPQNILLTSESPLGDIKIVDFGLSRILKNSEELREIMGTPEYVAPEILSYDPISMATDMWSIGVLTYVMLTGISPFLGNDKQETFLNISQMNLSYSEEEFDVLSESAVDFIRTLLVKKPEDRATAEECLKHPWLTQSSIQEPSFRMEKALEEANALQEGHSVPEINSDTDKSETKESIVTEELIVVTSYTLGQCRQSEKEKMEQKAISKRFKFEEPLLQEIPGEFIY
How it is done:
(§1) The corresponding dianilino-TDZs (1–5) were tested on a panel of 46 protein kinases representing the major kinome branches at a concentration of 10 μM using a Differential Scanning Fluorimetry (DSF). Only analogues 1–3 induced a significant (>2 °C) thermal shift when incubated with a subset of the proteins (Table 1).
(§2) Kinase selectivity assay—A home-made kinase panel was generated for the following enzymes: AAK1, BMP2K, BMX, BRAF, CAMK1D, CAMK1G, CAMKK1, CAMKK2B, CDC42BPA, CDK2, CDKL1, CHEK2, CLK1, CSNK1G1, CSNK1G3, CSNK2A1, DYRK1A, DYRK2A, EPHA2, GAK, GSG2, MAPK1, MAP2K7, MAPK14B, MAPK3, PHKG2, PIM1, PLK1, PKMYT1, PRPF4B, RPS6KA1A, RPS6KA5A, RPS6KA6A, SLK, SRPK1, SRPK2, STK3, STK6, STK10, STK17A, STK24, STK38L, TRIB2, TTK, VRK1 and VRK2. Proteins were produced in E. coli, purified in a Ni-chelate column, followed by overnight digestion using TEV protease (made in house with an N-terminal 6xHis tag) and dialysis to remove imidazole. To clear samples of uncleaved proteins and the TEV protease, samples were loaded on new Ni-chelate columns. The flow through was collected, concentrated and loaded to a HiLoad Superdex 200 16/600 column (GE Healthcare, Chicago, IL, USA) for final polishing and buffer exchange.
(§3) Starting from 100 µM protein stocks, our kinase panel enzymes were diluted to 1 µM in buffer 100 mM K2HPO4 pH 7.5 containing 150 mM NaCl, 10% glycerol and 5X dye (Applied Biosystems catalogue 4461806). The protein/dye mixture was transferred to a 384-well PCR microplate having 20 µL per well. Compounds in DMSO at 10 mM concentration were added in 20 nL volume, using a liquid handling device setup with a pin head, to make 10 µM compound concentration in the assay plate.
(§4) Protein thermal shift data was measured in a qPCR instrument (Applied Biosystems QuantStudio 6) programmed to equilibrate the plate at 25 °C for 5 min followed by ramping the temperature to 95 °C at a rate of 0.05 °C/s. Data was processed using Protein Thermal shift software (Applied Biosystems) by fitting experimental curves to a Boltzmann function to calculate differential thermal shifts (dTm) referenced to protein/dye in 0.2% DMSO.

For test [2], the target named is T2, CAMKK2B (Homo sapiens, UniProt Q96RR4).
T2 construct: purchased in-house (home-made panel, SGC-style construct names)
T2 sequence (Q96RR4 161-449): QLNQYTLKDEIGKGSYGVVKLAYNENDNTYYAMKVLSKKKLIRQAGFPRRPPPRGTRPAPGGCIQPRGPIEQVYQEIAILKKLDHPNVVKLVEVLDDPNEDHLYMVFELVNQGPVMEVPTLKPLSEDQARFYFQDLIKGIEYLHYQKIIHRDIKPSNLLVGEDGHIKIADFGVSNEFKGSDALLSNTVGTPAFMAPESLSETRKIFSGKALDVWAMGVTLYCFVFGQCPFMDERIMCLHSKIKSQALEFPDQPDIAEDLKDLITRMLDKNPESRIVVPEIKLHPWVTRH
The procedure:
as §1, §2, §3, §4

For test [3], the target named is T3, DYRK2A (Homo sapiens, UniProt Q92630).
T3 construct: purchased in-house (home-made panel, SGC-style construct names)
T3 sequence (Q92630 1-601): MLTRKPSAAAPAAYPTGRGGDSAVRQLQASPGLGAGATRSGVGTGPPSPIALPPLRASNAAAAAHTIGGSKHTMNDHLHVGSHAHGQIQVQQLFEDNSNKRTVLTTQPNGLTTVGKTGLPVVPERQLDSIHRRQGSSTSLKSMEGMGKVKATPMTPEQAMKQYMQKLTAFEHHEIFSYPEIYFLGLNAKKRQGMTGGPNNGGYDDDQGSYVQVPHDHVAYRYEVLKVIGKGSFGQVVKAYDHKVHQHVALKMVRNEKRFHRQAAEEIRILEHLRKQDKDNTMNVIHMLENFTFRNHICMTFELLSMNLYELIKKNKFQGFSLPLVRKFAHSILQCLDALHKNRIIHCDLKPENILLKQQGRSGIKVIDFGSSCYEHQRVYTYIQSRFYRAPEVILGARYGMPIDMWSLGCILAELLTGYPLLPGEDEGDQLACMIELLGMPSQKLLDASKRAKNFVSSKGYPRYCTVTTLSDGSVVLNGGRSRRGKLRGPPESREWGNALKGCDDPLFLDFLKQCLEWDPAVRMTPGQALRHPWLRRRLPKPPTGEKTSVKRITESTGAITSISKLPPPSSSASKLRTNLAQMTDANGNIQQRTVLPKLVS
The procedure:
as §1, §2, §3, §4

In test [4] the target is T4, TTKA (Homo sapiens, UniProt P33981).
T4 construct: TEV-cleavable (cleaved yes); made in house; host or cells: E. coli
T4 sequence (P33981 1-857): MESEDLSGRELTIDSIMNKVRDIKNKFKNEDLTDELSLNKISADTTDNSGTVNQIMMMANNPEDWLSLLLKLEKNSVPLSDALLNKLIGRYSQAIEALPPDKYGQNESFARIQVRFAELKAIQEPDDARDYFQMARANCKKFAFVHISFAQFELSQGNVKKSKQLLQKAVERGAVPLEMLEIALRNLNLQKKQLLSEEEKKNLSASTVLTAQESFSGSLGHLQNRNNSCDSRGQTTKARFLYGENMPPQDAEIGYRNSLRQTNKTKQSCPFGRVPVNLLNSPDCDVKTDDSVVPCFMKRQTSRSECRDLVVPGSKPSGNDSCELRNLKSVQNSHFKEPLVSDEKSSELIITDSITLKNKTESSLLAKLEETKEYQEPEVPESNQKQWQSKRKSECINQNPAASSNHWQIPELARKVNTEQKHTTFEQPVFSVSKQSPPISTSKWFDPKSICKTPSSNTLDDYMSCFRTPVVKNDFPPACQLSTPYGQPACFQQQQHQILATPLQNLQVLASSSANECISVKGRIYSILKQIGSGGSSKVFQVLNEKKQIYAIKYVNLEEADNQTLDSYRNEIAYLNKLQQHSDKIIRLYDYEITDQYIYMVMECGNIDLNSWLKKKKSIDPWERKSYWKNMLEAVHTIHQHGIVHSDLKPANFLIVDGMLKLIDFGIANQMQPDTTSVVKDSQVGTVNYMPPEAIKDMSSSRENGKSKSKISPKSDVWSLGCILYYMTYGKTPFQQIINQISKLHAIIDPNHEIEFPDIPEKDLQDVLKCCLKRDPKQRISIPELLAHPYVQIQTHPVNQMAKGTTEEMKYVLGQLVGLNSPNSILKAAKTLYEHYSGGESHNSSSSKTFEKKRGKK
The procedure:
as §1, §2, §3, §4

The term ΔTm denotes the shift of the melting midpoint relative to a reference.

Molecules are shown by their SMILES.

Take `CNC(=O)c1ccccc1Nc1nsnc(Nc2cccc(CS(C)(=O)=O)c2)c1=O` [Compound 4, N-Methyl-2-([5-({3-[(methylsulfonyl)methyl]phenyl}amino)-4-oxo-4H-1,2,6-thiadiazin-3-yl]-amino}-benzamide]: the ΔTm at 10 µM was -0.8 °C in test [1], -0.4 °C in test [2], 0.1 °C in test [3] and 0.3 °C in test [4].

Take `Cc1ccc(Nc2nsnc(Nc3cccc(C(N)=O)c3)c2=O)cc1O` [Compound 1, 3-({5-[(3-Hydroxy-4-methylphenyl)amino]-4-oxo-4H-1,2,6-thiadiazin-3-yl}amino)benzamide]: the ΔTm at 10 µM in test [1] was -0.5 °C; in test [2], 0.5 °C; in test [3], 0.1 °C; in test [4] it was 0.8 °C.

On to `CNC(=O)c1ccccc1Nc1nsnc(Nc2ccc(N3CCOCC3)cc2)c1=O` [Compound 5, N-Methyl-2-({5-[(4-morpholinophenyl)amino]-4-oxo-4H-1,2,6-thiadiazin-3-yl}amino)benzamide], for which the ΔTm at 10 µM in test [1] is -0.8 °C; in test [2], -0.5 °C; in test [3], 0.1 °C; in test [4] it was 0.1 °C.

For `Cc1ccc(Nc2nsnc(Nc3ccc4c(c3)CS(=O)(=O)C4)c2=O)cc1O` [Compound 3, 3-[(2,2-Dioxido-1,3-dihydrobenzo[c]thiophen-5-yl)amino]-5-[(3-hydroxy-4-methylphenyl)amino]-4H-1,2,6-thiadiazin-4-one], the thermal shift (ΔTm) at 10 µM in test [1] came out at 1.7 °C; in test [2], 2.3 °C; in test [3], 0.7 °C; in test [4], 2.1 °C.

For `Cc1ccc(Nc2nsnc(Nc3ccc(C(N)=O)cc3)c2=O)cc1O` [Compound 2, 4-({5-[(3-Hydroxy-4-methylphenyl)amino]-4-oxo-4H-1,2,6-thiadiazin-3-yl}amino)benzamide], the thermal shift (ΔTm) at 10 µM in test [1] was determined as 2.2 °C; in test [2] it was 2.9 °C; in test [3] it was 2.4 °C; in test [4], 2.6 °C.

The values are drawn from PMC6019134, “1,2,6-Thiadiazinones as Novel Narrow Spectrum Calcium/Calmodulin-Dependent Protein Kinase Kinase 2 (CaMKK2) Inhibitors” (Molecules : A Journal of Synthetic Chemistry and Natural …, 2018).
